US8906925B2, “Pyrido[4,3-B]indoles containing rigid moieties” (Medivation Technologies, Inc., priority 2008, dated 2014)

Assays:
[1] = biological target: T1, human recombinant serotonin (5-Hydroxytryptamine) 5-HT2A receptor (Homo sapiens, UniProt P28223); assay: Serotonin 5-HT2A radioligand binding ([3H]Ketanserin); conditions: for inhibition at 1 µM: read-out: Inhibition of ligand binding, Serotonin 5-HT2A (percent inhibition of specific binding), compound at 1 μM; for inhibition at 0.1 µM: read-out: Inhibition of ligand binding, Serotonin 5-HT2A (percent inhibition of specific binding), compound at 0.1 μM
T1 construct: expressed in transfected cells; host or cells: Chinese hamster ovary (CHO-K1) cells
T1 sequence (P28223 whole entry): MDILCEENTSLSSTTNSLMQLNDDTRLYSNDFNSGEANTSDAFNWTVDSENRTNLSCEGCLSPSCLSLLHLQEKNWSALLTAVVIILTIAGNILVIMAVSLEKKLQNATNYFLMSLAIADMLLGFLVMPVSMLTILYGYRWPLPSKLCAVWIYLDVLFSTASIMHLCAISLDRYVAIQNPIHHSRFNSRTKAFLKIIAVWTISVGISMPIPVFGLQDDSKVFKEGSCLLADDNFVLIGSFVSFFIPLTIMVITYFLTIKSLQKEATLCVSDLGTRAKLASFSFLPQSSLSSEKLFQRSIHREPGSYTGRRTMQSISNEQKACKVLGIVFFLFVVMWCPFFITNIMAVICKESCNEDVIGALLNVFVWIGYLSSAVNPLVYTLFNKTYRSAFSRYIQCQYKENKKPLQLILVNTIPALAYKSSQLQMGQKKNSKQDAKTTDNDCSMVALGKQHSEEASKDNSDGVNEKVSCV
Method: Compounds of the invention were incubated with 0.5 nM [^3H]Ketanserin for 60 min. at 25° C. Non-specific binding was estimated in the presence of 1 μM Mianserin. Receptor proteins were filtered and washed, the filters were then counted to determine [^3H]Ketanserin specifically bound.

[2] = biological target: T2, human recombinant histamine H2 receptor (Homo sapiens, UniProt P25021); assay: Histamine H2 radioligand binding ([125I]Aminopotentidine); conditions: for inhibition at 1 µM: read-out: Histamine Binding (1 μM) H2, percent inhibition of specific binding, 1 μM
T2 construct: expressed in transfected cells; host or cells: Chinese hamster ovary (CHO) K1 cells
T2 sequence (P25021 whole entry): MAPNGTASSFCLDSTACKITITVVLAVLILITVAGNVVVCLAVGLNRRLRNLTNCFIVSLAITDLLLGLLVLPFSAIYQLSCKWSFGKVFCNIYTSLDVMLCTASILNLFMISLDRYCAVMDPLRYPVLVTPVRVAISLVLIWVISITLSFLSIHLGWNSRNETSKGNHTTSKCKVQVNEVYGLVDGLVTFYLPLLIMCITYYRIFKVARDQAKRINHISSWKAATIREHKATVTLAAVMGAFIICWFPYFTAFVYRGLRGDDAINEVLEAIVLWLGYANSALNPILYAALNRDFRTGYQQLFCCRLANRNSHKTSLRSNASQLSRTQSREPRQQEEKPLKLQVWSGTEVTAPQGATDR
Outline: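 Receptor source: human recombinant H2 in CHO-K1 cells, assayed in 50 mM phosphate pH 7.4. Competition against 0.1 nM [125I]aminopotentidine, 120 min, 25 °C; 3 μM tiotidine sets nonspecific binding, filter-bound counts give specific binding.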

histamine receptor H1 = histamine receptor H1 (Homo sapiens, UniProt P35367); assay: Histamine H1 radioligand binding ([3H]Pyrilamine); conditions: for inhibition at 1 µM: read-out: Histamine Binding (1 μM) H1, percent inhibition of specific binding, 1 μM
Sequence of histamine receptor H1 (P35367 whole entry): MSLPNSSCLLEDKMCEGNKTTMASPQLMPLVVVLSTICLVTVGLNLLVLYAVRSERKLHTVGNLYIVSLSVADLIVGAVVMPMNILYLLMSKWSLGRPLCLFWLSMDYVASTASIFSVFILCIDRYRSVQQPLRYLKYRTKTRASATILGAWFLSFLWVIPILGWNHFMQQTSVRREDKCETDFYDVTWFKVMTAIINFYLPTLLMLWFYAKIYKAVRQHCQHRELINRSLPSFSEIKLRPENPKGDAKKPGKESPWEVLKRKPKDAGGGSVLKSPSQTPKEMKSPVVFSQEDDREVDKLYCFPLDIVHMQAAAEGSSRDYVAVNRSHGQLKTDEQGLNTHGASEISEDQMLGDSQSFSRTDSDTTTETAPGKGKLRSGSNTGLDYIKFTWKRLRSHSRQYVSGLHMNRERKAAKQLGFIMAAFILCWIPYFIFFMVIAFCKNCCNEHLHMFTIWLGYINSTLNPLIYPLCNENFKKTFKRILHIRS
Outline: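 Values are percent inhibition of specific [3H]pyrilamine (1.2 nM) binding with compounds at ≤1 μM (1% DMSO vehicle); 180 min incubation at 25 °C, pH 7.4 Tris buffer, on CHO-expressed human H1 receptor; 1 μM pyrilamine defined nonspecific binding, bound ligand counted after filtration.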

[3] = biological target: T3, human recombinant adrenergic α2A receptor (Homo sapiens, UniProt P08913); assay: Adrenergic α2A radioligand binding ([3H]MK-912); conditions: percent inhibition of specific binding, compound at 1 μM; for inhibition at 1 µM: read-out: Inhibition of ligand binding, Adrenergic α2A
T3 construct: expressed in transfected cells; host or cells: insect Sf9 cells
T3 sequence (P08913 1-465): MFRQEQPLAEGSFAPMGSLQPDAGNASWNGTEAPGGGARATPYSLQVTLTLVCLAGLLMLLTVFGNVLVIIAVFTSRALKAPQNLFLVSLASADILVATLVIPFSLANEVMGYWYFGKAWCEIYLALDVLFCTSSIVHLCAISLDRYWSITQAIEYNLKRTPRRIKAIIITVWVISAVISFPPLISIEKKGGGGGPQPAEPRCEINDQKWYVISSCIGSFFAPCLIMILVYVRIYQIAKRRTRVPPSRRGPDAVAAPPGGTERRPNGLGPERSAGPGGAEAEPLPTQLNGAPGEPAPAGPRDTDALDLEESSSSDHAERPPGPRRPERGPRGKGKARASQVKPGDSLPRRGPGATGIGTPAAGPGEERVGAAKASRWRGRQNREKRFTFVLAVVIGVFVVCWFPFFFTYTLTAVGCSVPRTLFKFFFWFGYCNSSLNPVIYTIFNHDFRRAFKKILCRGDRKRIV
Outline: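 Sf9-expressed human receptor in 50 mM Tris-HCl pH 7.4, 12.5 mM MgCl2, 2 mM EDTA; compounds at 1 μM or lower (1% DMSO) incubated with 1 nM [3H]MK-912 for 60 min at 25° C. Non-specific binding defined with 10 μM WB-4101; filtered bound radioactivity counted, reported as percent inhibition of specific binding.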

[4] = biological target: T4, human recombinant adrenergic α2B receptor (Homo sapiens, UniProt P18089); assay: Adrenergic α2B radioligand binding ([3H]Rauwolscine); conditions: percent inhibition of specific binding, compound at 1 μM; for inhibition at 1 µM: read-out: Inhibition of ligand binding, Adrenergic α2B
T4 construct: expressed in transfected cells; host or cells: Chinese hamster ovary (CHO-K1) cells
T4 sequence (P18089 1-450): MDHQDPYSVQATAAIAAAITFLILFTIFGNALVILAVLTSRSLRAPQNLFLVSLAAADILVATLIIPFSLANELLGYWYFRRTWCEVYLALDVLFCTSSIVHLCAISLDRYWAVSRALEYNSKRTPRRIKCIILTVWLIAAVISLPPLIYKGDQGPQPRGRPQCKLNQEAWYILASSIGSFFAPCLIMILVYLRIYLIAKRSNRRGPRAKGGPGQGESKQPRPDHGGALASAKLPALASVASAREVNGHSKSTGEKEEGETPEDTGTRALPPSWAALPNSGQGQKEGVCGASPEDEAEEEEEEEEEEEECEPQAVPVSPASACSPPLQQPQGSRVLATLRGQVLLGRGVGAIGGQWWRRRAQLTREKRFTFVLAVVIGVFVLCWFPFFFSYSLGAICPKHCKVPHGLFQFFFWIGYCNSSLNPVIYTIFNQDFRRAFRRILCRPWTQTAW
Outline: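 Membranes from CHO-K1 cells expressing the receptor were incubated with 2.5 nM [3H]Rauwolscine for 60 min at 25 °C in Tris-HCl buffer pH 7.4 with MgCl2, EDTA and BSA. Non-specific binding was defined with 10 μM prazosin. Compounds were tested at ≤1 μM in 1% DMSO and read out as % inhibition of specific binding after filtration.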

Structure (SMILES) | inhibition at 1 µM [1] [%] | inhibition at 1 µM [2] [%] | inhibition at 1 µM (histamine receptor H1) [%] | inhibition at 1 µM [3] [%] | inhibition at 1 µM [4] [%] | inhibition at 0.1 µM [1] [%] | Histamine Binding (1 μM) H1, percent inhibition of specific binding (histamine receptor H1) [%] | Inhibition of ligand binding, Serotonin 5-HT2A (percent inhibition of specific binding) ([1]; compound at 1 μM, 1 µM) [%] | Histamine Binding (1 μM) H2, percent inhibition of specific binding ([2]; 1 μM) [%] | Inhibition of ligand binding, Adrenergic α2A ([3]; 1 µM) [%] | Inhibition of ligand binding, Adrenergic α2B ([4]; 1 µM) [%]
CN1CCc2c(c3cc(Cl)ccc3n2CC(O)(c2ccc(F)cc2)C2CCC2)C1 (centres unmarked) [Compound 177, 2-(8-chloro-2-methyl-3,4-dihydro-1H-pyrido[4,3-b]indol-5(2H)-yl)-1-cyclobutyl-1-(4-fluorophenyl)ethanol] | 97 | 101 | 83 | 96 | 94 |  |  |  |  |  | 
CCCCC(O)(Cn1c2c(c3cc(Cl)ccc31)CN(C)CC2)c1ccc(F)cc1 (centres unmarked) [Compound 178, 1-(8-chloro-2-methyl-3,4-dihydro-1H-pyrido[4,3-b]indol-5(2H)-yl)-2-(4-fluorophenyl)hexan-2-ol] | 98 | 89 | 30 | 88 | 79 |  |  |  |  |  | 
Cc1ccc2c(c1)c1c(n2CC(O)c2ccncc2)CCN(C)C1 (centres unmarked) [Compound 180, 2-(2,8-dimethyl-3,4-dihydro-1H-pyrido[4,3-b]indol-5(2H)-yl)-1-(pyridin-4-yl)ethanol] | 86 | 24 | 84 | 84 | 105 |  |  |  |  |  | 
Cc1ccc2c(c1)c1c(n2/C=C/c2ccccc2)CCN(C)C1 [Compound 202, (E)-2,8-dimethyl-5-styryl-2,3,4,5-tetrahydro-1H-pyrido[4,3-b]indole] | 101 | 97 | 100 | 98 | 98 |  |  |  |  |  | 
CN1CCc2c(c3cc(Cl)ccc3n2/C=C(\c2ccc(F)cc2)C2CC2)C1 [Compound 203, (Z)-8-chloro-5-(2-cyclopropyl-2-(4-fluorophenyl)vinyl)-2-methyl-2,3,4,5-tetrahydro-1H-pyrido[4,3-b]indole] | 100 | 99 | 64 | 100 | 108 | 98 | 72 |  |  |  | 
C/C=C/C(=C\n1c2c(c3cc(Cl)ccc31)CN(C)CC2)c1ccc(F)cc1 [Compound 204, 8-chloro-5-((1E,3E)-2-(4-fluorophenyl)penta-1,3-dienyl)-2-methyl-2,3,4,5-tetrahydro-1H-pyrido[4,3-b]indole] | 101 | 101 | 55 | 99 | 86 |  |  |  |  |  | 
C/C(=C\n1c2c(c3ccccc31)CN(C)CC2)c1ccc(F)cc1 [Compound 205, (E)-5-(2-(4-fluorophenyl)prop-1-enyl)-2-methyl-2,3,4,5-tetrahydro-1H-pyrido[4,3-b]indole] | 97 | 95 | 31 | 99 | 101 | 104 | 39 |  |  |  | 
CN1CCc2c(c3cc(Cl)ccc3n2/C=C(/c2ccc(F)cc2)C2CCC2)C1 [Compound 206, (E)-8-chloro-5-(2-cyclobutyl-2-(4-fluorophenyl)vinyl)-2-methyl-2,3,4,5-tetrahydro-1H-pyrido[4,3-b]indole] | 98 | 102 | 76 | 96 | 89 |  |  |  |  |  | 
CNC(=O)C/C(=C\n1c2c(c3cc(C)ccc31)CN(C)CC2)c1ccc(F)cc1 [Compound 207, (E)-4-(2,8-dimethyl-3,4-dihydro-1H-pyrido[4,3-b]indol-5(2H)-yl)-3-(4-fluorophenyl)-N-methylbut-3-enamide] | 97 | 46 | 15 | 86 | 80 |  |  |  |  |  | 
CCCC/C(=C\n1c2c(c3cc(Cl)ccc31)CN(C)CC2)c1ccc(F)cc1 [Compound 208, (E)-8-chloro-5-(2-(4-fluorophenyl)hex-1-enyl)-2-methyl-2,3,4,5-tetrahydro-1H-pyrido[4,3-b]indole] | 102 | 102 | 64 | 99 | 103 |  |  |  |  |  | 
Cc1ccc2c(c1)c1c(n2/C=C(\CC(=O)O)c2ccc(F)cc2)CCN(C)C1 [Compound 209, (E)-4-(2,8-dimethyl-3,4-dihydro-1H-pyrido[4,3-b]indol-5(2H)-yl)-3-(4-fluorophenyl)but-3-enoic acid] | 93 | 20 | 9 | 30 | 59 |  |  |  |  |  | 
C/C(=C\n1c2c(c3cc(Cl)ccc31)CN(C)CC2)c1ccc(Cl)cc1Cl [Compound 210, (E)-8-chloro-5-(2-(2,4-dichlorophenyl)prop-1-enyl)-2-methyl-2,3,4,5-tetrahydro-1H-pyrido[4,3-b]indole] |  |  |  |  |  |  | 53 | 98 | 96 | 79 | 102
C/C(=C\n1c2c(c3cc(C)ccc31)CN(C)CC2)c1ccc(Cl)cc1 [Compound 211, (E)-5-(2-(4-chlorophenyl)prop-1-enyl)-2,8-dimethyl-2,3,4,5-tetrahydro-1H-pyrido[4,3-b]indole] | 99 | 100 | 53 | 97 | 114 | 97 | 54 |  |  |  | 
C/C(=C/n1c2c(c3cc(Cl)ccc31)CN(C)CC2)c1ccccc1F [Compound 212, (Z)-8-chloro-5-(2-(2-fluorophenyl)prop-1-enyl)-2-methyl-2,3,4,5-tetrahydro-1H-pyrido[4,3-b]indole] | 91 | 84 | 70 | 88 | 105 |  |  |  |  |  | 
C/C(=C\n1c2c(c3cc(Cl)ccc31)CN(C)CC2)c1ccccc1F [Compound 213, (E)-8-chloro-5-(2-(2-fluorophenyl)prop-1-enyl)-2-methyl-2,3,4,5-tetrahydro-1H-pyrido[4,3-b]indole] | 98 | 99 | 69 | 88 | 103 |  |  |  |  |  | 
CN1CCc2c(c3cc(Cl)ccc3n2C2=C(c3cccnc3)CCCC2)C1 [Compound No. 166, 8-chloro-2-methyl-5-(2-(pyridin-3-yl)cyclohex-1-enyl)-2,3,4,5-tetrahydro-1H-pyrido[4,3-b]indole] | 46 | 56 | 14 | 44 | 63 |  |  |  |  |  | 
